Measurements from paper PMC11620517, “Novel hydrazone compounds with broad-spectrum antiplasmodial activity and synergistic interactions with antimalarial drugs” (Antimicrobial Agents and Chemotherapy, 2024).
Where “and” joins values, the source holds several entries; their conditions need not be identical. Identical values can stand only once. Like-named read-outs stand apart in the source and are kept apart here.

Legend:
[1] = test system: P. falciparum oocyst formation in Anopheles stephensi mosquitoes; test: P. falciparum oocyst inhibition assay (SMFA); assay type: in vivo, Plasmodium falciparum; conditions: for Median (oocysts) / Prevalence % / Median I % / Prevalence I %: pooled from two representative experiments; for oocyst formation inhibition: midguts dissected 8 days after feeding
Description: As previously described, P. falciparum infections were performed using SMFA with NF54 gametocyte cultures diluted to 0.3% stage V gametocytemia ([62]). Infected blood (O+ human 45% hematocrit in serum) was offered to mosquitoes for 30 minutes, and engorged mosquitoes were maintained on a 10% corn syrup solution supplemented by four concentrations of CB compounds (1, 2.5, 5, and 10 µM) at […] ([63]), with DMSO serving as a control. Eight days post-infection, mosquito midguts were dissected and stained with 0.2% mercurochrome for 30 minutes, and oocysts were quantified under a light microscope ([63]).

P. falciparum C2B = test: Malaria SYBR Green I-Based Fluorescence (MSF) assay, blood stages; assay type: cell-based; conditions: Plasmodium falciparum, 72 h, read-out: IC50 (µM) (±SD) for strain: C2B
Description: (§1) MSF assays were performed in vitro with four P. falciparum strains: D6 (drug sensitive), TM91-C235 (multidrug resistant), W2 (CQ resistant), and C2B (multidrug resistant against ATQ). Parasite strains were kept continuously in long-term cultures as described ([22]). Pre-dosed 384-well plates containing […] serial dilutions of CB compounds (0.0098–20 µM) were prepared using the Tecan Freedom Evo liquid handling system (Tecan USA, Inc., Durham, NC, USA) and were stored at 4°C. A CQ control plate (2,000 ng/mL) was included in each run. Based on modifications of previous methods ([17], [55]), late-ring or early-trophozoite stages were cultured in pre-dosed plates with 0.3% parasitemia and 2% hematocrit. Cultures were incubated for 72 hours at 37°C in a controlled atmosphere of 5% CO2, 5% O2, and 90% N2. Lysis buffer, consisting of 20 mM Tris HCl, 5 mM EDTA, 1.6% Triton X, 0.016% saponin, and SYBR Green I dye at a 20X concentration (Invitrogen #S-7567), was added to the plates for a final 10X SYBR Green concentration. Plates containing cell culture media and lysis buffer were incubated in the dark at 25°C for 24 hours, and the relative fluorescence units (RFU) were measured using the Tecan Genios Plus (Tecan USA, Inc.).

P. falciparum W2 = test: as above; assay type: cell-based; conditions: Plasmodium falciparum, W2; blood stages, 72 hours, CQ resistant strain; read-out: IC50 (µM) (±SD) for strain: W2
Description: as §1

P. falciparum TM91c235 = test: as above; assay type: cell-based; conditions: Plasmodium falciparum; blood stages, 72 hours, multidrug resistant strain; read-out: IC50 (µM) (±SD) for strain: TM91c235
Description: as §1

P. falciparum D6 = test: as above; assay type: cell-based; conditions: Plasmodium falciparum, D6; blood stages, 72 hours, drug-sensitive strain; read-out: IC50 (µM) (±SD) for strain: D6
Description: as §1

human GST = target: T1, human GST (Homo sapiens, UniProt P08263); test: GST inhibition assay (CDNB); assay type: biochemical; conditions: 6-point 1–50 µM
T1 construct: The open reading frames encoding PfGST, PbGST, and hGST were gene-synthesized; TEV cleavage site (C); Avitag (C); purchased InterRayBio, LLC; host or cells: E. coli BL21 (DE3)
T1 sequence (P08263 1-222): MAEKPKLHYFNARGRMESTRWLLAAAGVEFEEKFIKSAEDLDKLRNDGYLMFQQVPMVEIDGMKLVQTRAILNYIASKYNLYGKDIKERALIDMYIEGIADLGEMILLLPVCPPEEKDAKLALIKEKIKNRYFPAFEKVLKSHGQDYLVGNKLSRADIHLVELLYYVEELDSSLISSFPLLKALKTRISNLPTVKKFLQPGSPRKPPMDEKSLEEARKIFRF
Description: (§2) Enzymatic activities of recombinant GSTs were determined spectrophotometrically using the chromogenic substrate 1-chloro-2,4-dinitrobenzene (CDNB). Recombinant GST (0.35 mg/mL) was mixed with 1 mM CDNB in 100 mM HEPES. Stock solutions (10 mM) of the CB compounds and hemin were prepared in 100% dimethyl sulfoxide (DMSO) and then diluted at 0.5% DMSO ([14]). Each inhibitor has six concentrations ranging from 1 to 50 µM. The reaction was initiated with 1 mM glutathione (GSH) after 15 minutes. Absorbance change at 340 nm was measured for 1 hour. The slope was converted to micromole per minute using Beer’s equation and the extinction coefficient for the product S-(2,4-dinitrophenyl)glutathione (ε340 nm = 9.6 mM^–1 cm^–1) ([14]). The assay was validated using human placenta GST (#G8642) as a positive control.

[2] = target: T2, recombinant P. falciparum GST (Plasmodium falciparum, UniProt Q8ILQ7); test: GST inhibition assay (CDNB); assay type: biochemical; conditions: 6-point 1–50 µM
T2 construct: The open reading frames encoding PfGST, PbGST, and hGST were gene-synthesized; TEV cleavage site (C); Avitag (C); purchased InterRayBio, LLC; host or cells: E. coli BL21 (DE3)
T2 sequence (Q8ILQ7 1-211): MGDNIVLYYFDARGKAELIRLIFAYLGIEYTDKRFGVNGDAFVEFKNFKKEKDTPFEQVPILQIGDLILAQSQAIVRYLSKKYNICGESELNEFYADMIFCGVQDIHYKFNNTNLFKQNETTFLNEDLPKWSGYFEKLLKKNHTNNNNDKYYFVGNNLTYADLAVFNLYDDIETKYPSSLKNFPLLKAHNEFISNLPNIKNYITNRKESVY
Description: as §2

[3] = 1 μM compound, P. falciparum midgut infection in An. stephensi mosquitoes
[4] = 1 μM compound, infection prevalence in mosquitoes
[5] = 2.5 μM compound, P. falciparum midgut infection in An. stephensi mosquitoes
[6] = 2.5 μM compound, infection prevalence in mosquitoes
[7] = 5 μM compound, P. falciparum midgut infection in An. stephensi mosquitoes
[8] = 5 μM compound, infection prevalence in mosquitoes
[9] = 5 μM, single experiments, read-out: % inhibition (mean)
[10] = 10 μM compound, P. falciparum midgut infection in An. stephensi mosquitoes
[11] = 10 μM compound, infection prevalence in mosquitoes
[12] = 10 μM compound, oocyst number vs DMSO control, read-out: % inhibition (mean)
[13] = 10 μM compound, vs DMSO control, read-out: % inhibition (prevalence)
[14] = 10 μM, single experiments, read-out: % inhibition (prevalence)

With `COc1cccc(/C=N/NC(=O)c2cc(-c3ccccc3)nc3ccccc23)c1O` [CB-58] the “Median oocyst #” value ([1]; 1 μM compound) was 6, the “Mean oocyst # excluding zeros (Range)” value [1, 3] was 19 (0-95) and the Prevalence [1, 4] was 76. For the same compound, the “Median (oocysts)” value ([1]; 1 µM) was 6, the Prevalence % ([1]; 1 µM) was 75% and the “% inhibition (prevalence)” value ([1]; 1 μM, single experiments) was 1%. For the same compound, the Prevalence ([1]; 1 μM, single experiments) was 69 and 82 and 83, the inhibition at 1 µM ([1]; 1 μM, single experiments, read-out: % inhibition (mean)) was 5% and the inhibition at 1 µM ([1]; 1 μM, single experiments, read-out: % inhibition (median)) was 23%. The “Median oocyst #” value ([1]; 2.5 μM compound) was 7, the “Mean oocyst # excluding zeros (Range)” value [1, 5] was 26 (0-103) and the Prevalence [1, 6] was 72. For the same compound, the “Median (oocysts)” value ([1]; 2.5 µM) was 7, the Prevalence % ([1]; 2.5 µM) was 72% and the “% inhibition (prevalence)” value ([1]; 2.5 μM, single experiments) was 1%. For the same compound, the Prevalence ([1]; 2.5 μM, single experiments) was 66 and 79 and 87, the “Median oocyst #” value ([1]; 5 μM compound) was 6 and the “Mean oocyst # excluding zeros (Range)” value [1, 7] was 14 (0-70). For the same compound, the Prevalence [1, 8] was 87, the “Median (oocysts)” value ([1]; 5 µM) was 6 and the Prevalence % ([1]; 5 µM) was 87%. For the same compound, the Prevalence ([1]; 5 μM, single experiments) was 96 and 83 and 69, the inhibition at 5 µM [1, 9] was 10% and the inhibition at 5 µM ([1]; 5 μM, single experiments, read-out: % inhibition (median)) was 26%. The “Median oocyst #” value ([1]; 10 μM compound) was 3, the “Mean oocyst # excluding zeros (Range)” value [1, 10] was 17 (0-93) and the Prevalence [1, 11] was 57. The inhibition at 10 µM [1, 12] was 10%, the inhibition at 10 µM ([1]; 10 μM compound, oocyst number vs DMSO control, read-out: % inhibition (median)) was 50% and the inhibition at 10 µM [1, 13] was 19%. For the same compound, the “Median (oocysts)” value ([1]; 10 µM) was 3, the “Median I %” value ([1]; 10 µM) was 50% and the Prevalence % ([1]; 10 µM) was 57%. The “Prevalence I %” value ([1]; 10 µM) was 19%, the “% inhibition (prevalence)” value ([1]; 10 μM, single experiments) was 15% and the inhibition at 10 µM ([1]; 10 μM, single experiments, read-out: % inhibition (mean)) was 30%. The inhibition at 10 µM [1, 14] was 30%, the oocyst formation inhibition ([1]; 1 to 10 µM) was “did not inhibit oocyst formation” and the IC50 (P. falciparum C2B) was 8.83 µM. The IC50 (P. falciparum W2) was 5.63 µM, the IC50 (P. falciparum TM91c235) was 10.6 µM and the IC50 (P. falciparum D6) was 8.44 µM. For the same compound, the GST inhibition (human GST) was “did not inhibit” and the GST inhibition [2] was “did not inhibit”.

In the case of `COc1cccc(/C=N/NC(=O)c2nc(-c3ccccc3)cc(-c3ccccc3)n2)c1O` [CB-41], the “Median oocyst #” value ([1]; 1 μM compound) was 45, the “Mean oocyst # excluding zeros (Range)” value [1, 3] was 53 (0-136) and the Prevalence [1, 4] was 85. For the same compound, the inhibition at 1 µM ([1]; 1 μM compound, vs DMSO control, read-out: % inhibition (prevalence)) was 14%, the “Median (oocysts)” value ([1]; 1 µM) was 45 and the “Median I %” value ([1]; 1 µM) was 18%. The Prevalence % ([1]; 1 µM) was 85%, the “Prevalence I %” value ([1]; 1 µM) was 14% and the “Mean oocyst # excluding zeros (Range)” value ([1]; 1 μM, single experiments) was 53 (0-136) and 77 (0-156). For the same compound, the “Median oocyst #” value ([1]; 1 μM, single experiments) was 45 and 63, the “Median oocyst #” value ([1]; 2.5 μM compound) was 44 and the “Mean oocyst # excluding zeros (Range)” value [1, 5] was 51 (0-123). The Prevalence [1, 6] was 83, the inhibition at 2.5 µM ([1]; 2.5 μM compound, oocyst number vs DMSO control, read-out: % inhibition (mean)) was 2% and the inhibition at 2.5 µM ([1]; 2.5 μM compound, oocyst number vs DMSO control, read-out: % inhibition (median)) was 19%. The inhibition at 2.5 µM ([1]; 2.5 μM compound, vs DMSO control, read-out: % inhibition (prevalence)) was 17%, the “Median (oocysts)” value ([1]; 2.5 µM) was 44 and the “Median I %” value ([1]; 2.5 µM) was 19%. For the same compound, the Prevalence % ([1]; 2.5 µM) was 83%, the “Prevalence I %” value ([1]; 2.5 µM) was 17% and the “% inhibition (mean)” value ([1]; 2.5 μM, single experiments) was 9%. The “% inhibition (median)” value ([1]; 2.5 μM, single experiments) was 30%, the “Mean oocyst # excluding zeros (Range)” value ([1]; 2.5 μM, single experiments) was 47 (0-92) and 55 (0-123) and 64 (0-156) and the “Median oocyst #” value ([1]; 2.5 μM, single experiments) was 40 and 48. The inhibition at 2.5 µM ([1]; 2.5 μM, single experiments, read-out: % inhibition (mean)) was 10%, the inhibition at 2.5 µM ([1]; 2.5 μM, single experiments, read-out: % inhibition (median)) was 26% and the “Median oocyst #” value ([1]; 5 μM compound) was 32. The “Mean oocyst # excluding zeros (Range)” value [1, 7] was 49 (0-108), the Prevalence [1, 8] was 71 and the inhibition at 5 µM ([1]; 5 μM compound, oocyst number vs DMSO control, read-out: % inhibition (mean)) was 6%. The inhibition at 5 µM ([1]; 5 μM compound, oocyst number vs DMSO control, read-out: % inhibition (median)) was 41%, the inhibition at 5 µM ([1]; 5 μM compound, vs DMSO control, read-out: % inhibition (prevalence)) was 28% and the “Median (oocysts)” value ([1]; 5 µM) was 32. The “Median I %” value ([1]; 5 µM) was 41%, the Prevalence % ([1]; 5 µM) was 71% and the “Prevalence I %” value ([1]; 5 µM) was 28%. For the same compound, the “Mean oocyst # excluding zeros (Range)” value ([1]; 5 μM, single experiments) was 45 (0-108) and 52 (0-107) and 70 (0-144), the inhibition at 5 µM [1, 9] was 15% and the “Median oocyst #” value ([1]; 10 μM compound) was 35. For the same compound, the “Mean oocyst # excluding zeros (Range)” value [1, 10] was 44 (0-128), the Prevalence [1, 11] was 82 and the inhibition at 10 µM [1, 12] was 15%. For the same compound, the inhibition at 10 µM [1, 13] was 18%, the “Median (oocysts)” value ([1]; 10 µM) was 35 and the “Median I %” value ([1]; 10 µM) was 36%. The Prevalence % ([1]; 10 µM) was 82%, the “Prevalence I %” value ([1]; 10 µM) was 18% and the “% inhibition (prevalence)” value ([1]; 10 μM, single experiments) was 45%. The “Mean oocyst # excluding zeros (Range)” value ([1]; 10 μM, single experiments) was 37 (0-102) and 50 (0-128) and 59 (0-146), the “Median oocyst #” value ([1]; 10 μM, single experiments) was 27 and 44 and the inhibition at 10 µM [1, 14] was 46%. The median inhibition percentage ([1]; 1 to 10 µM) was “below 50%”, the prevalence inhibition percentage ([1]; 1 to 10 µM) was “below 50%” and the oocyst formation inhibition ([1]; 1 to 10 µM) was “inhibited midgut oocyst formation in a dose-dependent manner”. For the same compound, the IC50 (P. falciparum C2B) was 2.73 µM, the IC50 (P. falciparum W2) was 2.71 µM and the IC50 (P. falciparum TM91c235) was 2.26 µM. For the same compound, the IC50 (P. falciparum D6) was 2.26 µM, the GST inhibition (human GST) was “did not inhibit” and the GST inhibition [2] was “did not inhibit”.
